Measurements taken from article PMC4358768 (Journal of medicinal chemistry, 2011).

How the values were obtained:
[1] = biological target: rP2Y1-GFP receptor; conditions: read-out: EC50 at P2Y1R (rP2Y1-GFP receptor); cited from earlier work
[2] = biological target: tP2Y1 receptor (Meleagris gallopavo, UniProt P49652); test: [Ca2+]i elevation in 1321N1 astrocytoma cells expressing turkey P2Y1 receptor; format: cell-based; conditions: 1321N1 astrocytoma cells stably transfected with turkey P2Y1 receptor, fura-2, 37 °C; for EC50: read-out: EC50 for [Ca2+]i elevation, P2Y1
tP2Y1 receptor, sequence (P49652 whole entry): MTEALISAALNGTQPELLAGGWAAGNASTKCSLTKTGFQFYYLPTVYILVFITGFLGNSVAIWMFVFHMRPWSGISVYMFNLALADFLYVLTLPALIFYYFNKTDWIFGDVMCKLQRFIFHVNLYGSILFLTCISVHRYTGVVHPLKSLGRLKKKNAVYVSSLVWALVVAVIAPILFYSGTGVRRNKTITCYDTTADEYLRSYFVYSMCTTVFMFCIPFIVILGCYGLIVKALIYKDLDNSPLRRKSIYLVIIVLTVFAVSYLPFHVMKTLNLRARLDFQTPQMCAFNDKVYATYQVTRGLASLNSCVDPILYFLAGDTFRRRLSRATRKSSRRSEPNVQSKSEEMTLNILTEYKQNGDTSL

[3] = biological target: T1, human e-NPP1 (Homo sapiens, UniProt P22413); test: Hydrolysis of dinucleotides by human e-NPP1; format: in vitro ADME; conditions: over 20 min at 37 °C, pH 8.5
T1 sequence (P22413 1-925): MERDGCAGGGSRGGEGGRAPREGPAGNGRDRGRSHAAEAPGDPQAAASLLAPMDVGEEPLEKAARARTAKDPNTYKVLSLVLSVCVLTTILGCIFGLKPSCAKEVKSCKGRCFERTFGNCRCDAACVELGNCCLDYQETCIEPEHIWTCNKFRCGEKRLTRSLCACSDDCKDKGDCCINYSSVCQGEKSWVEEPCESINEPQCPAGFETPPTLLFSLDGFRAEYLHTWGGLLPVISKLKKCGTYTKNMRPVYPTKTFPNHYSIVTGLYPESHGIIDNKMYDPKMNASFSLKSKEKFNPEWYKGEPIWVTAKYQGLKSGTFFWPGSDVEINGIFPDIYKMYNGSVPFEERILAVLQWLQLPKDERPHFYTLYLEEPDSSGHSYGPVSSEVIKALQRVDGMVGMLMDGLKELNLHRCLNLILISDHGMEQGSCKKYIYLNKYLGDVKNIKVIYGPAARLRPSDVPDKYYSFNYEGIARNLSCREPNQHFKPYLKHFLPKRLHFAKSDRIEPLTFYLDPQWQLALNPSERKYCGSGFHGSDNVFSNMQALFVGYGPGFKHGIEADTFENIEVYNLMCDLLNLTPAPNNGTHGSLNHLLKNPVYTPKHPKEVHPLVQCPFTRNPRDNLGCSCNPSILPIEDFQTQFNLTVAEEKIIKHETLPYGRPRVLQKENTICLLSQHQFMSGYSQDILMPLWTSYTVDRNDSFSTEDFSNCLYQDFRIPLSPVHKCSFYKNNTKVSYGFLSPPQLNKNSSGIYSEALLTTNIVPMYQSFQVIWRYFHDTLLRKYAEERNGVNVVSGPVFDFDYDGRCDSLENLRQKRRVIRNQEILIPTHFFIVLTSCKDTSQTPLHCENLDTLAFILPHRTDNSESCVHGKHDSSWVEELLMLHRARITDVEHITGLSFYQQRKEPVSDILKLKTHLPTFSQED

[4] = system: P2Y2R; conditions: read-out: EC50 at P2Y2R; cited from earlier work

**Q.** Which EC50 [1] does the source give for `CSc1nc(N)c2ncn([C@@H]3O[C@H](COP(=O)(O)OP(=O)(O)O)[C@@H](O)[C@H]3O)c2n1` [Analogue 2-SMe-ADP] here?
**A.** The EC50 was 0.1 µM.

**Q.** Which EC50 [2] does the source give for `[BH3-][P+](O)(OP(=O)(O)OC[C@H]1O[C@@H](n2ccc(=O)[nH]c2=O)[C@H](O)[C@@H]1O)OP(=O)(O)OP(=O)(O)OC[C@H]1O[C@@H](n2ccc(=O)[nH]c2=O)[C@H](O)[C@@H]1O` (some centres unmarked) [Analogue 7A, P^2-Borano-P^1,P^4-di(5′-uridine)tetraphosphate] here?
**A.** The EC50 was greater than 100 µM.

**Q.** For `[BH3-][P+](O)(OP(=O)(O)OC[C@H]1O[C@@H](n2cnc3c(N)ncnc32)[C@H](O)[C@@H]1O)OP(=O)(O)OP(=O)(O)OC[C@H]1O[C@@H](n2ccc(=O)[nH]c2=O)[C@H](O)[C@@H]1O` (some centres unmarked) [Analogue 8, P^3-Borano-P^1,P^4-5′-uridine-5′-adenosinetetraphosphate], which “EC50 for [Ca2+]i elevation, P2Y1” value ([2]; listed as Ap4(β-B)U) is on record?
**A.** Its value is “inactive”.

**Q.** Which EC50 [2] does the source give for `[BH3-][P+](O)(OP(=O)(O)OC[C@H]1O[C@@H](n2cnc3c(N)ncnc32)[C@H](O)[C@@H]1O)OP(=O)(O)OP(=O)(O)OC[C@H]1O[C@@H](n2ccc(=O)[nH]c2=O)[C@H](O)[C@@H]1O` (some centres unmarked) [Analogue 8A, P^3-Borano-P^1,P^4-5′-uridine-5′-adenosinetetraphosphate] here?
**A.** Its EC50 is greater than 100 µM.

**Q.** Which “percentage of the compound hydrolyzed by human e-NPP1” value [3] does the source give for `BP(=O)(OC[C@H]1O[C@@H](n2cnc3c(N)ncnc32)[C@H](O)[C@@H]1O)OP(=O)(O)OP(=O)(O)OC[C@H]1O[C@@H](n2cnc3c(N)ncnc32)[C@H](O)[C@@H]1O` (some centres unmarked) [Analogue 10A, P^1-Borano-P^1,P^3-5′-diadenosinetriphosphate] here?
**A.** The value was “completely resistant to hydrolysis”.

**Q.** With `BP(=O)(OC[C@H]1O[C@@H](n2ccc(=O)[nH]c2=O)[C@H](O)[C@@H]1O)OP(=O)(O)OP(=O)(O)OC[C@H]1O[C@@H](n2ccc(=O)[nH]c2=O)[C@H](O)[C@@H]1O` (some centres unmarked) [Analogue 11A, P^1-Borano-P^1,P^3-5′-diuridinetriphosphate] as the compound, how does the “percentage of the compound hydrolyzed by human e-NPP1” value [3] read?
**A.** The value was “completely resistant to hydrolysis”.

**Q.** For `BP(=O)(OC[C@H]1O[C@@H](n2ccc(=O)[nH]c2=O)[C@H](O)[C@@H]1O)OP(=O)(O)OP(=O)(O)OP(=O)(O)OC[C@H]1O[C@@H](n2ccc(=O)[nH]c2=O)[C@H](O)[C@@H]1O` (some centres unmarked) [Analogue 13A, P^1-Borano-P^1,P^4-5′-diuridinetetraphosphate], which EC50 [2] is on record?
**A.** Its EC50 is greater than 100 µM.

**Q.** Which EC50 [4] does the source give for `O=c1ccn([C@@H]2O[C@H](COP(=O)(O)OP(=O)(O)OP(=O)(O)O)[C@@H](O)[C@H]2O)c(=O)[nH]1` [UTP, uridine 5′-triphosphate] here?
**A.** Its EC50 is 0.015 µM.
